Values quoted from earlier work in patent US20080233144A1, “Use of the Mushroom Agaricus Blazei Murill for the Production of Medicaments Suitable for Treating Infections and Allergies” (priority 2004, published 2008).

System: Streptococcus pneumoniae serotype 6B
Conditions: previous experiments

Question: For β-glucan, which “effect in the pneumococcus infection model when given via gavage” value is on record?
Answer: Its value is “did not have any effect”.
